How the values were obtained:
JAWSII cells = assay: IL-1β inhibition in stimulated JAWSII cells; type: cell-based, mouse; conditions: immune regulator alone, LPS+Alum stimulated, 24 hours
Procedure: JAWSII cells (mouse bone marrow cells) were recovery from liquid nitrogen and put into a water bath at 37° C. The cells were washed twice with the MEM media. The recovered cells were cultured in 10 mL cMEM (MEM+20% FBS+5 ng/mL rmGM-CSF) for 5-7 days. The cells were ready for use after 2 passages.
The cell supernatant was collected for further analysis.
Each supernatant noted above was centrifuged under 12000 rpm at 4° C. for 5 minutes. The level of IL-1β (an immune active biomarker) was measured following the ELISA procedure provided below.
15. Calculate the IL-1β concentration of tested subject by standard curve. Inhibition percentage (%) was calculated as the percentage of the reduction of IL-1β level of each tested sample as compared with the positive control (LPS+Alum) and the blank control.

[1] = tested on: red blood cell suspension; assay: Hemolytic assay of formulations; type: cell-based, Mouse
Procedure: Mouse blood was collected and added with 800 μl of 15 mg/ml of EDTA to prevent the coagulation. It was centrifuged at 1,500 rpm for 15 min followed by discarding of the supernatant. The pellet was resuspended into 1 ml PBS, and centrifugated at 1,500 rpm for 15 min. The procedure was repeated for approximately 2 or 3 times until the supernatant became clear. The pellet containing red blood cells was resuspended with PBS at 1:10 to get 10% of red cell suspension after discarding supernatant, then further diluted into 2% with PBS. Five hundred microliters of 2% red blood cell suspension were mixed with 500 μl of different formulations, respectively, for a period of 180 minutes at 37° C. The hemolysis was recorded by a camera from the beginning to the end. After that, sample was centrifuged at 1,500 rpm for 2 min, the absorbance of supernatant was measured at OD405nm and the results were statistically analyzed.

| Compound | inhibition (immune suppression) of IL-1β level (JAWSII cells) | hemolysis [1] |
| --- | --- | --- |
| CO[C@H]1C[C@@H]2CC[C@@H](C)[C@@](O)(O2)C(=O)C(=O)N2CCCC[C@H]2C(=O)O[C@H]([C@H](C)C[C@@H]2CC[C@@H](O)[C@H](OC)C2)CC(=O)[C@H](C)/C=C(\C)[C@@H](O)[C@@H](OC)C(=O)[C@H](C)C[C@H](C)/C=C/C=C/C=C/1C [rapamycin] | around 60% | – |
| CC(O)CO (stereo not drawn) [propylene glycol] | – | Various degrees of hemolysis |
| C=CC[C@@H]1/C=C(\C)C[C@H](C)C[C@H](OC)[C@H]2O[C@@](O)(C(=O)C(=O)N3CCCC[C@H]3C(=O)O[C@H](/C(C)=C/[C@@H]3CC[C@@H](O)[C@H](OC)C3)[C@H](C)[C@@H](O)CC1=O)[C@H](C)C[C@@H]2OC [FK506] | around 100% | – |

Reference: US11666650B2, “Immune composition comprising respiratory syncytial virus (RSV) G polypeptide” (ADVACCINE (SUZHOU) BIOPHARMACEUTICALS CO. LTD., priority 2019, dated 2023)
